Results published in article PMC12703428, “Development of Granzyme A Turn‐ON Fluorescent Activity‐Based Probes” (Chembiochem, 2025).
“And” between values parts separate entries of the source, which are not always exact repeats. Identical values can stand only once.

Experiments:
NK‐92 cells = assay: Flow cytometry analysis of protein labeling in NK-92 and MDA-MB-231 cells; format: cell-based, human; details: 2 h, 37 °C
Method: Figure 4 Characterization of qABPs in native proteomes. A) Labeling of GzmA by 5 and 6 in lysates of various cell lines (1 h, 37 °C). B) Stability of 5 and 6 in buffer and cell media (11 h, 37 °C). The hydrolysis of probes was measured by monitoring the production of Cy5 fluorescence signal over time. […] C) Labeling of GzmA by probes 3 -6 in NK-92 cells (2 h, 37 °C). D) Flow cytometry analysis of protein labeling in NK-92 cells by 3 -5. […] E) Flow cytometry analysis of concentration-dependent GzmA labeling in NK-92 cells and S/N of 5 (5 μM, 2 h, 37 °C). […] F) Flow cytometry analysis of protein labeling by 5 in MDA-MB-231 cells co-cultured with NK-92 cells (see Supporting Information for conditions).

[1] = test system: MDA‐MB‐231 cells co‐cultured with NK‐92 cells; assay: GzmA transfer in NK-92 / MDA-MB-231 coculture; format: cell-based, human; details: 5x10^5 MDA-MB-231 with 2x10^6 NK-92 cells, probe 5 μM, 1-6 h, flow cytometry and gel-based analyses
Method: Figure 4 Characterization of qABPs in native proteomes. A) Labeling of GzmA by 5 and 6 in lysates of various cell lines (1 h, 37 °C). B) Stability of 5 and 6 in buffer and cell media (11 h, 37 °C). The hydrolysis of probes was measured by monitoring the production of Cy5 fluorescence signal over time. […] C) Labeling of GzmA by probes 3 –6 in NK‐92 cells (2 h, 37 °C). D) Flow cytometry analysis of protein labeling in NK‐92 cells by 3 –5. […] E) Flow cytometry analysis of concentration‐dependent GzmA labeling in NK‐92 cells and S/N of 5 (5 μM, 2 h, 37 °C). […]
Supplementary Figure 5. […] Protein samples were analyzed by SDS-PAGE and in-gel fluorescence scanning for Cy5 signal. […]
Conditions for Figure 4C: Various concentrations of probes 3-6 were incubated with 1x10^6 NK-92 cells for 2 h at 37 °C in a humidified incubator. […] Lysates were collected, protein concentration was measured with PIERCE BCA protein assay and samples were analyzed with in-gel fluorescence and GzmA western blotting. […]
All flow cytometry data were collected on BD LSRFortessa and FACSymphony A5 Cell Analyzers and analyzed with FlowJo software. […] Fixed/Permeabilized cells were then resuspended in appropriate amounts of cell staining buffer (BioLegend #420201) and analyzed with flow cytometry and FlowJo software. […]

With IGNR [compound 5] the “Cell permeability by flow cytometry (Cy5 signal in NK-92 cells)” value (NK‐92 cells; 1x10^6 NK-92 cells, fixed/permeabilized, mean ± SD n = 3) was “clear Cy5 signal”, the “Concentration dependence of protein labeling in NK-92 cells (flow cytometry)” value (NK‐92 cells; NK-92 cells, n = 3) was “concentration‐dependent protein labeling” and the “S/N ratio (mean fluorescence intensity, intact NK-92 versus MDA-MB-231 cells)” value (NK‐92 cells; probe 5 μM, flow cytometry, n = 3) was “≈ 4 and 4”. The “Detection of GzmA transfer from NK-92 cells to MDA-MB-231 cells” value [1] was “able to detect GzmA transfer”.
